Assay results reported in ChEMBL document CHEMBL1157443, “Synthesis and in vitro anti-hepatitis B virus activities of 4-aryl-6-chloro-quinolin-2-one and 5-aryl-7-chloro-1,4-benzodiazepine derivatives” (Bioorg Med Chem Lett, 2008).

test system: Hepatitis B virus; assay: Antiviral activity against hepatitis B virus infected Hep G2.2.15 cells assessed as inhibition of HBsAg secretion; type: functional, organism-based; conditions: HepG2 2.2.15

Structure (SMILES)	IC50 [µM]
CC(=O)OC1N=C(c2ccccc2)c2cc(Cl)ccc2NC1=O (stereo not given)	292
CC(=O)Nc1c(-c2ccccc2F)c2cc(Cl)ccc2[nH]c1=O	141
O=c1cc(-c2ccccc2)c2cc(Cl)ccc2[nH]1	485
O=c1[nH]c2ccc(Cl)cc2c(-c2ccccc2F)c1CCO	187
O=c1[nH]c2ccc(Cl)cc2c(-c2ccccc2Cl)c1CCO	74
O=c1cc(-c2ccccc2Cl)c2cc(Cl)ccc2[nH]1	752
O=c1cc(-c2ccccc2F)c2cc(Cl)ccc2[nH]1	2840
CC(=O)OC1N=C(c2ccccc2F)c2cc(Cl)ccc2NC1=O (stereo not given)	160
Nc1c(-c2ccccc2)c2cc(Cl)ccc2[nH]c1=O	67
Nc1c(-c2ccccc2F)c2cc(Cl)ccc2[nH]c1=O	56
CC(=O)Nc1c(-c2ccccc2)c2cc(Cl)ccc2[nH]c1=O	208
Nc1c(-c2ccccc2Cl)c2cc(Cl)ccc2[nH]c1=O	341
O=C1CN2OC2(c2ccccc2)c2cc(Cl)ccc2N1 (stereo not given)	728
O=C1CN2OC2(c2ccccc2F)c2cc(Cl)ccc2N1 (stereo not given)	195
CC(=O)OC1N=C(c2ccccc2Cl)c2cc(Cl)ccc2NC1=O (stereo not given)	167
O=c1[nH]c2ccc(Cl)cc2c(-c2ccccc2)c1CCO	300
CC(=O)Nc1c(-c2ccccc2Cl)c2cc(Cl)ccc2[nH]c1=O	129
O=C1CN2OC2(c2ccccc2Cl)c2cc(Cl)ccc2N1 (stereo not given)	355
O=C1CN=C(c2ccccc2F)c2cc(Cl)ccc2N1	294
O=C1CN=C(c2ccccc2Cl)c2cc(Cl)ccc2N1 [DELORAZEPAM]	76
O=C1CN=C(c2ccccc2)c2cc(Cl)ccc2N1 [NORDAZEPAM]	255

test system: not listed separately; assay: Cytotoxicity against human Hep G2.2.15 cells; type: cell-based, HepG2 2.2.15; conditions: not given

Structure (SMILES)	CC50 [µM]
CC(=O)OC1N=C(c2ccccc2)c2cc(Cl)ccc2NC1=O (stereo not given)	678
CC(=O)Nc1c(-c2ccccc2F)c2cc(Cl)ccc2[nH]c1=O	44
O=c1cc(-c2ccccc2)c2cc(Cl)ccc2[nH]1	1250
O=c1[nH]c2ccc(Cl)cc2c(-c2ccccc2F)c1CCO	> 2990
O=c1[nH]c2ccc(Cl)cc2c(-c2ccccc2Cl)c1CCO	1720
O=c1cc(-c2ccccc2Cl)c2cc(Cl)ccc2[nH]1	6000
O=c1cc(-c2ccccc2F)c2cc(Cl)ccc2[nH]1	> 5460
CC(=O)OC1N=C(c2ccccc2F)c2cc(Cl)ccc2NC1=O (stereo not given)	344
Nc1c(-c2ccccc2)c2cc(Cl)ccc2[nH]c1=O	399
Nc1c(-c2ccccc2F)c2cc(Cl)ccc2[nH]c1=O	767
CC(=O)Nc1c(-c2ccccc2)c2cc(Cl)ccc2[nH]c1=O	239
Nc1c(-c2ccccc2Cl)c2cc(Cl)ccc2[nH]c1=O	341
O=C1CN2OC2(c2ccccc2)c2cc(Cl)ccc2N1 (stereo not given)	946
O=C1CN2OC2(c2ccccc2F)c2cc(Cl)ccc2N1 (stereo not given)	346
CC(=O)OC1N=C(c2ccccc2Cl)c2cc(Cl)ccc2NC1=O (stereo not given)	154
O=c1[nH]c2ccc(Cl)cc2c(-c2ccccc2)c1CCO	> 4910
CC(=O)Nc1c(-c2ccccc2Cl)c2cc(Cl)ccc2[nH]c1=O	208
O=C1CN2OC2(c2ccccc2Cl)c2cc(Cl)ccc2N1 (stereo not given)	302
O=C1CN=C(c2ccccc2F)c2cc(Cl)ccc2N1	183
O=C1CN=C(c2ccccc2Cl)c2cc(Cl)ccc2N1 [DELORAZEPAM]	76
Nc1ccn([C@@H]2CS[C@H](CO)O2)c(=O)n1 [LAMIVUDINE]	30000

test system: not listed separately; assay: Selectivity index, ratio of CC50 for human Hep G2.2.15 cells to IC50 for HBV e antigen secretion; type: functional; conditions: not given

Structure (SMILES)	Ratio CC50/IC50
CC(=O)OC1N=C(c2ccccc2)c2cc(Cl)ccc2NC1=O (stereo not given)	<1
CC(=O)Nc1c(-c2ccccc2F)c2cc(Cl)ccc2[nH]c1=O	<1
O=c1cc(-c2ccccc2)c2cc(Cl)ccc2[nH]1	<1
O=c1[nH]c2ccc(Cl)cc2c(-c2ccccc2F)c1CCO	>5.5
O=c1[nH]c2ccc(Cl)cc2c(-c2ccccc2Cl)c1CCO	3.4
O=c1cc(-c2ccccc2Cl)c2cc(Cl)ccc2[nH]1	<1
O=c1cc(-c2ccccc2F)c2cc(Cl)ccc2[nH]1	>2.4
CC(=O)OC1N=C(c2ccccc2F)c2cc(Cl)ccc2NC1=O (stereo not given)	<1
Nc1c(-c2ccccc2)c2cc(Cl)ccc2[nH]c1=O	<1
Nc1c(-c2ccccc2F)c2cc(Cl)ccc2[nH]c1=O	<1
CC(=O)Nc1c(-c2ccccc2)c2cc(Cl)ccc2[nH]c1=O	<1
Nc1c(-c2ccccc2Cl)c2cc(Cl)ccc2[nH]c1=O	<1
O=C1CN2OC2(c2ccccc2)c2cc(Cl)ccc2N1 (stereo not given)	<1
O=C1CN2OC2(c2ccccc2F)c2cc(Cl)ccc2N1 (stereo not given)	<1
CC(=O)OC1N=C(c2ccccc2Cl)c2cc(Cl)ccc2NC1=O (stereo not given)	<1
O=c1[nH]c2ccc(Cl)cc2c(-c2ccccc2)c1CCO	>5.2
CC(=O)Nc1c(-c2ccccc2Cl)c2cc(Cl)ccc2[nH]c1=O	2.6
O=C1CN2OC2(c2ccccc2Cl)c2cc(Cl)ccc2N1 (stereo not given)	<1
O=C1CN=C(c2ccccc2F)c2cc(Cl)ccc2N1	<1
O=C1CN=C(c2ccccc2Cl)c2cc(Cl)ccc2N1 [DELORAZEPAM]	<1
Nc1ccn([C@@H]2CS[C@H](CO)O2)c(=O)n1 [LAMIVUDINE]	1.2

test system: Hepatitis B virus; assay: Antiviral activity against hepatitis B virus infected Hep G2.2.15 cells assessed as inhibition of HBeAg secretion; type: functional, organism-based; conditions: HepG2 2.2.15

Structure (SMILES)	IC50 [µM]
CC(=O)OC1N=C(c2ccccc2)c2cc(Cl)ccc2NC1=O (stereo not given)	> 4260
CC(=O)Nc1c(-c2ccccc2F)c2cc(Cl)ccc2[nH]c1=O	79
O=c1cc(-c2ccccc2)c2cc(Cl)ccc2[nH]1	> 4140
O=c1[nH]c2ccc(Cl)cc2c(-c2ccccc2F)c1CCO	545
O=c1[nH]c2ccc(Cl)cc2c(-c2ccccc2Cl)c1CCO	449
O=c1cc(-c2ccccc2Cl)c2cc(Cl)ccc2[nH]1	> 6000
O=c1cc(-c2ccccc2F)c2cc(Cl)ccc2[nH]1	2220
CC(=O)OC1N=C(c2ccccc2F)c2cc(Cl)ccc2NC1=O (stereo not given)	1220
Nc1c(-c2ccccc2)c2cc(Cl)ccc2[nH]c1=O	> 3990
Nc1c(-c2ccccc2F)c2cc(Cl)ccc2[nH]c1=O	> 3610
CC(=O)Nc1c(-c2ccccc2)c2cc(Cl)ccc2[nH]c1=O	1870
Nc1c(-c2ccccc2Cl)c2cc(Cl)ccc2[nH]c1=O	> 5470
O=C1CN2OC2(c2ccccc2)c2cc(Cl)ccc2N1 (stereo not given)	> 3280
O=C1CN2OC2(c2ccccc2F)c2cc(Cl)ccc2N1 (stereo not given)	> 3260
CC(=O)OC1N=C(c2ccccc2Cl)c2cc(Cl)ccc2NC1=O (stereo not given)	1940
O=c1[nH]c2ccc(Cl)cc2c(-c2ccccc2)c1CCO	950
CC(=O)Nc1c(-c2ccccc2Cl)c2cc(Cl)ccc2[nH]c1=O	80
O=C1CN2OC2(c2ccccc2Cl)c2cc(Cl)ccc2N1 (stereo not given)	4490
O=C1CN=C(c2ccccc2F)c2cc(Cl)ccc2N1	5360
O=C1CN=C(c2ccccc2Cl)c2cc(Cl)ccc2N1 [DELORAZEPAM]	4080
O=C1CN=C(c2ccccc2)c2cc(Cl)ccc2N1 [NORDAZEPAM]	835

test system: not listed separately; assay: Selectivity index, ratio of CC50 for human Hep G2.2.15 cells to IC50 for HBV surface antigen secretion; type: functional; conditions: not given

Structure (SMILES)	Ratio CC50/IC50
CC(=O)OC1N=C(c2ccccc2)c2cc(Cl)ccc2NC1=O (stereo not given)	2.3
CC(=O)Nc1c(-c2ccccc2F)c2cc(Cl)ccc2[nH]c1=O	<1
O=c1cc(-c2ccccc2)c2cc(Cl)ccc2[nH]1	2.6
O=c1[nH]c2ccc(Cl)cc2c(-c2ccccc2F)c1CCO	>16
O=c1[nH]c2ccc(Cl)cc2c(-c2ccccc2Cl)c1CCO	23
O=c1cc(-c2ccccc2Cl)c2cc(Cl)ccc2[nH]1	8
O=c1cc(-c2ccccc2F)c2cc(Cl)ccc2[nH]1	>1.9
CC(=O)OC1N=C(c2ccccc2F)c2cc(Cl)ccc2NC1=O (stereo not given)	2.2
Nc1c(-c2ccccc2)c2cc(Cl)ccc2[nH]c1=O	6
Nc1c(-c2ccccc2F)c2cc(Cl)ccc2[nH]c1=O	14
CC(=O)Nc1c(-c2ccccc2)c2cc(Cl)ccc2[nH]c1=O	1.1
Nc1c(-c2ccccc2Cl)c2cc(Cl)ccc2[nH]c1=O	1
O=C1CN2OC2(c2ccccc2)c2cc(Cl)ccc2N1 (stereo not given)	1.3
O=C1CN2OC2(c2ccccc2F)c2cc(Cl)ccc2N1 (stereo not given)	1.8
CC(=O)OC1N=C(c2ccccc2Cl)c2cc(Cl)ccc2NC1=O (stereo not given)	<1
O=c1[nH]c2ccc(Cl)cc2c(-c2ccccc2)c1CCO	>16
CC(=O)Nc1c(-c2ccccc2Cl)c2cc(Cl)ccc2[nH]c1=O	1.6
O=C1CN2OC2(c2ccccc2Cl)c2cc(Cl)ccc2N1 (stereo not given)	<1
O=C1CN=C(c2ccccc2F)c2cc(Cl)ccc2N1	<1
O=C1CN=C(c2ccccc2Cl)c2cc(Cl)ccc2N1 [DELORAZEPAM]	<1
Nc1ccn([C@@H]2CS[C@H](CO)O2)c(=O)n1 [LAMIVUDINE]	2.6
